Values belong to the molecule of their own block, whether it stands above or below them.
Target: T1, Bcl-2 protein (Recombinant Human Bcl-2 Protein) (Homo sapiens, UniProt P10415)
T1 construct: purchased Novus NBP2-34889
Assay: Binding evaluation of mixture library compounds to Bcl-2 using AS-MS (affinity selection mass spectrometry)
Details: for ASMS ratio (%) n = 1 / ASMS ratio (%) n = 2: ASMS Ratio(%)=(A−C)/B×100; for ASMS ratio (%) n = 1: replicate n = 1; for ASMS ratio (%) n = 2: replicate n = 2
Summary of the method: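 Pooled library of ~1200 compounds ([…] each, final) incubated with recombinant human Bcl-2 (20 μM final) in Tris-HCl pH 7.4, NaCl, Tween-20, DTT buffer, dark, 23° C., 1 h. Bound fraction recovered by SEC spin column, organic extraction, reversed-phase LC/MS. ASMS Ratio (%) = (A−C)/B×100 versus protein-free standard and SEC blank.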

[1] = AS-MS, mixture of 1200 compounds, Bcl-2
[2] = AS-MS on the mixture of 1200 library compounds

T1 sequence (P10415 whole entry): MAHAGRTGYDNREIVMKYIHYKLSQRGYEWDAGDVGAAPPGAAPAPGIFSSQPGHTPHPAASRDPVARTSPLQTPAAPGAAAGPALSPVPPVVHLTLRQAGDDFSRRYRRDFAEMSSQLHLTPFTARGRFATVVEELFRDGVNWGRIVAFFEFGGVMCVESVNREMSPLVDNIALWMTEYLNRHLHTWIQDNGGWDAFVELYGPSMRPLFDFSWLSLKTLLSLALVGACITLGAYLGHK

SMILES: CCOc1cncc(-c2ccc(CN3CCN(c4ccc(C(=O)NCC56CC7CC(CC(C7)C5)C6)nn4)CC3)cc2C)c1 [B1A074-01, N-(1-Adamantylmethyl)-6-[4-[[4-(5-ethoxypyridin-3-yl)-3-methylphenyl]methyl]piperazin-1-yl]pyridazine-3-carboxamide]
ASMS ratio (%) n = 1 [1]: 3.2%
ASMS ratio (%) n = 2 [1]: −0.1%

SMILES: CCOc1cncc(-c2cc(C(=O)N3CCN(c4ccc(C(=O)NS(=O)(=O)CC56CC7CC(CC(C7)C5)C6)nn4)CC3)cc(C(C)(C)C)c2)c1 [B2A016-01, N-(1-Adamantylmethylsulfonyl)-6-[4-[3-tert-butyl-5-(5-ethoxypyridin-3-yl)benzoyl]piperazin-1-yl]pyridazine-3-carboxamide]
ASMS ratio (%) n = 1 (AS-MS, mixture library, Bcl-2): 0.0%
ASMS ratio (%) n = 2 (AS-MS, mixture library, Bcl-2): 2.5%

SMILES: CCOc1cncc(-c2ccc(CN3CCN(c4ccc(C(=O)N(CC)CC)cc4)CC3)c3ccccc23)c1 [B4J066-01, 4-[4-[[4-(5-Ethoxypyridin-3-yl)naphthalen-1-yl]methyl]piperazin-1-yl]-N,N-diethylbenzamide]
ASMS ratio (%) n = 1 (AS-MS, mixture library, Bcl-2): 0.0%
ASMS ratio (%) n = 2 (AS-MS, mixture library, Bcl-2): −1.5%

SMILES: CCOc1cccc(-c2cc(CN3CCN(c4ccc(C(=O)NCC(F)(F)F)nn4)CC3)cc(OCC)c2)c1 [B1K081-01, 6-[4-[[3-Ethoxy-5-(3-ethoxyphenyl)phenyl]methyl]piperazin-1-yl]-N-(2,2,2-trifluoroethyl)pyridazine-3-carboxamide]
ASMS ratio (%) n = 1 [1]: 2.3%
ASMS ratio (%) n = 2 [1]: −0.4%

SMILES: CCOc1cccc(-c2cc(CN3CCN(c4ccc(C(=O)Nc5ccc(OC)cc5)cc4)CC3)cc(C(F)(F)F)c2)c1 [B1O061-01, 4-[4-[[3-(3-Ethoxyphenyl)-5-(trifluoromethyl)phenyl]methyl]piperazin-1-yl]-N-(4-methoxyphenyl)benzamide]
ASMS ratio (%) n = 1 [2]: 1.9%
ASMS ratio (%) n = 2 [2]: −1.5%

SMILES: CCOc1cccc(-c2cc(OC)c(CN3CCN(c4ccc(C(=O)Nc5ccc(OC)cc5)cc4)CC3)c(OC)c2)c1 [B1O059-01, 4-[4-[[4-(3-Ethoxyphenyl)-2,6-dimethoxyphenyl]methyl]piperazin-1-yl]-N-(4-methoxyphenyl)benzamide]
ASMS ratio (%) n = 1 [2]: 2.0%
ASMS ratio (%) n = 2 [2]: −1.9%

SMILES: CCOc1cncc(-c2cc(C(=O)N3CCN(c4ccc(C(=O)Nc5ccc(OC)cc5)cc4)CC3)cc(C(F)(F)F)c2)c1 [B1O040-01, 4-[4-[3-(5-Ethoxypyridin-3-yl)-5-(trifluoromethyl)benzoyl]piperazin-1-yl]-N-(4-methoxyphenyl)benzamide]
ASMS ratio (%) n = 1 [2]: 1.8%
ASMS ratio (%) n = 2 [2]: 0.3%

SMILES: CCOc1cccc(-c2ccc(CN3CCN(c4ccc(C(=O)NCC(F)(F)F)nn4)CC3)cc2C)c1 [B1K073-01, 6-[4-[[4-(3-Ethoxyphenyl)-3-methylphenyl]methyl]piperazin-1-yl]-N-(2,2,2-trifluoroethyl)pyridazine-3-carboxamide]
ASMS ratio (%) n = 1 [1]: 3.1%
ASMS ratio (%) n = 2 [1]: −1.9%

SMILES: CCOc1cccc(C#Cc2ccccc2CN2CCN(c3ccc(C(=O)NCC45CC6CC(CC(C6)C4)C5)nn3)CC2)c1 [B1A095-01, N-(1-Adamantylmethyl)-6-[4-[[2-[2-(3-ethoxyphenyl)ethynyl]phenyl]methyl]piperazin-1-yl]pyridazine-3-carboxamide]
ASMS ratio (%) n = 1 [1]: 0.3%
ASMS ratio (%) n = 2 [1]: −17.1%

SMILES: CCOc1cncc(-c2ccccc2CN2CCN(c3ccc(C(=O)N(CC)CC)cc3)CC2)c1 [B4J046-01]
ASMS ratio (%) n = 1 [2]: 0.0%
ASMS ratio (%) n = 2 [2]: 0.0%

SMILES: CCOc1cccc(-c2ccc(CN3CCN(c4ccc(C(=O)NS(=O)(=O)C(C)(C)C)cc4)CC3)c(OC)c2)c1 [B2L053-01]
ASMS ratio (%) (n = 1): 0.0%
ASMS ratio (%) (n = 2): 0.0%

SMILES: CCOc1cncc(-c2ccc(CN3CCN(c4ccc(C(=O)NCC(F)(F)F)nn4)CC3)c(OC)c2)c1 [B1K080-01, 6-[4-[[4-(5-Ethoxypyridin-3-yl)-2-methoxyphenyl]methyl]piperazin-1-yl]-N-(2,2,2-trifluoroethyl)pyridazine-3-carboxamide]
ASMS ratio (%) n = 1 [1]: 0.0%
ASMS ratio (%) n = 2 [1]: 0.0%

Next, values leading:

ASMS ratio (%) (n = 1): 31.9%
ASMS ratio (%) (n = 2): −11.1%
SMILES: CCOc1cccc(-c2cc(CN3CCN(c4ccc(C(=O)NS(=O)(=O)c5ccc(NCCSc6ccccc6)c(C(F)(F)F)c5)nn4)CC3)cc(OC(C)C)c2)c1 [B2R083-01, 6-[4-[[3-(3-Ethoxyphenyl)-5-propan-2-yloxyphenyl]methyl]piperazin-1-yl]-N-[4-(2-phenylsulfanylethylamino)-3-(trifluoromethyl)phenyl]sulfonylpyridazine-3-carboxamide]

ASMS ratio (%) (n = 1): 0.0%
ASMS ratio (%) (n = 2): 0.0%
SMILES: CCOc1cncc(C#Cc2cc(C(=O)N3CCN(c4ccc(C(=O)NS(=O)(=O)C(C)(C)C)cc4)CC3)cc(C(F)(F)F)c2)c1 [B2L042-01, N-tert-Butylsulfonyl-4-[4-[3-[2-(5-ethoxypyridin-3-yl)ethynyl]-5-(trifluoromethyl)benzoyl]piperazin-1-yl]benzamide]

ASMS ratio (%) (n = 2): 0.0%
SMILES: CCOc1cccc(-c2csc(CN3CCN(c4ccc(C(=O)NS(=O)(=O)C(C)(C)C)nn4)CC3)c2)c1 [B2L093-01, N-tert-Butylsulfonyl-6-[4-[[4-(3-ethoxyphenyl)thiophen-2-yl]methyl]piperazin-1-yl]pyridazine-3-carboxamide]

ASMS ratio (%) (n = 1): −1.0%
ASMS ratio (%) (n = 2): −2.4%
SMILES: CCOc1cccc(-c2ccc(C(=O)N3CCN(c4ccc(C(=O)NS(=O)(=O)c5ccc(NCCSc6ccccc6)c(C(F)(F)F)c5)cc4)CC3)cc2C)c1 [B2R025-01, 4-[4-[4-(3-Ethoxyphenyl)-3-methylbenzoyl]piperazin-1-yl]-N-[4-(2-phenylsulfanylethylamino)-3-(trifluoromethyl)phenyl]sulfonylbenzamide]

ASMS ratio (%) (n = 1): 0.0%
ASMS ratio (%) (n = 2): 0.0%
SMILES: CCOc1cccc(-c2cc(C(=O)N3CCN(c4ccc(C(=O)NS(=O)(=O)CCC(F)(F)F)cc4)CC3)cc(C(C)(C)C)c2)c1 [B2N037-01, 4-[4-[3-tert-Butyl-5-(3-ethoxyphenyl)benzoyl]piperazin-1-yl]-N-(3,3,3-trifluoropropylsulfonyl)benzamide]

ASMS ratio (%) (n = 1): 0.0%
ASMS ratio (%) (n = 2): −14.9%
SMILES: CCOc1cccc(-c2cnn(-c3cc(C(=O)N4CCN(c5ccc(C(=O)NS(=O)(=O)C(C)(C)C)nn5)CC4)cc(C(F)(F)F)c3)c2)c1 [B2L021-01, N-tert-Butylsulfonyl-6-[4-[3-[4-(3-ethoxyphenyl)pyrazol-1-yl]-5-(trifluoromethyl)benzoyl]piperazin-1-yl]pyridazine-3-carboxamide]

ASMS ratio (%) (n = 1): 0.0%
ASMS ratio (%) (n = 2): 1.4%
SMILES: CCOc1cccc(-c2ccc(CN3CCN(c4ccc(C(=O)NS(=O)(=O)CCC(F)(F)F)cc4)CC3)c(OC)c2)c1 [B2N053-01, 4-[4-[[4-(3-Ethoxyphenyl)-2-methoxyphenyl]methyl]piperazin-1-yl]-N-(3,3,3-trifluoropropylsulfonyl)benzamide]

ASMS ratio (%) (n = 2): 0.0%
SMILES: CCOc1cncc(C#Cc2ccccc2CN2CCN(c3ccc(C(=O)NS(C)(=O)=O)cc3)CC2)c1 [B2I070-01, 4-[4-[[2-[2-(5-Ethoxypyridin-3-yl)ethynyl]phenyl]methyl]piperazin-1-yl]-N-methylsulfonylbenzamide]

ASMS ratio (%) n = 1 (AS-MS, mixture library, Bcl-2): 7.3%
ASMS ratio (%) n = 2 (AS-MS, mixture library, Bcl-2): 2.8%
SMILES: CCOc1cncc(-c2cc(CN3CCN(c4ccc(C(=O)NS(=O)(=O)c5ccc(NCCSc6ccccc6)c([N+](=O)[O-])c5)cc4)CC3)cc(OCC)c2)c1 [B2Q056-01, 4-[4-[[3-Ethoxy-5-(5-ethoxypyridin-3-yl)phenyl]methyl]piperazin-1-yl]-N-[3-nitro-4-(2-phenylsulfanylethylamino)phenyl]sulfonylbenzamide]

ASMS ratio (%) n = 1 [2]: −0.3%
ASMS ratio (%) n = 2 [2]: −0.5%
SMILES: CCOc1cccc(-c2cc(C(=O)N3CCN(c4ccc(C(=O)N(CC)CC)nn4)CC3)cc(C(F)(F)F)c2)c1 [B4J017-01, 6-[4-[3-(3-Ethoxyphenyl)-5-(trifluoromethyl)benzoyl]piperazin-1-yl]-N,N-diethylpyridazine-3-carboxamide]

ASMS ratio (%) n = 1 (AS-MS, mixture library, Bcl-2): 20.8%
ASMS ratio (%) n = 2 (AS-MS, mixture library, Bcl-2): 16.6%
SMILES: CCOc1cncc(-c2ccc(CN3CCN(c4ccc(C(=O)NS(=O)(=O)CC56CC7CC(CC(C7)C5)C6)nn4)CC3)c3ccccc23)c1 [B2A092-01, N-(1-Adamantylmethylsulfonyl)-6-[4-[[4-(5-ethoxypyridin-3-yl)naphthalen-1-yl]methyl]piperazin-1-yl]pyridazine-3-carboxamide]

ASMS ratio (%) n = 1 [2]: 6.3%
ASMS ratio (%) n = 2 [2]: −2.9%
SMILES: CCOc1cncc(-c2ccc(CN3CCN(c4ccc(C(=O)N(C)CC56CC7CC(CC(C7)C5)C6)cc4)CC3)c3ccccc23)c1 [B3A066-01, N-(1-Adamantylmethyl)-4-[4-[[4-(5-ethoxypyridin-3-yl)naphthalen-1-yl]methyl]piperazin-1-yl]-N-methylbenzamide]

ASMS ratio (%) (n = 1): 0.0%
ASMS ratio (%) (n = 2): 19.5%
SMILES: CCOc1cncc(C#Cc2ccccc2C(=O)N2CCN(c3ccc(C(=O)NS(=O)(=O)c4ccc(NCCSc5ccccc5)c(C(F)(F)F)c4)nn3)CC2)c1 [B2R008-01, 6-[4-[2-[2-(5-Ethoxypyridin-3-yl)ethynyl]benzoyl]piperazin-1-yl]-N-[4-(2-phenylsulfanylethylamino)-3-(trifluoromethyl)phenyl]sulfonylpyridazine-3-carboxamide]

ASMS ratio (%) n = 1 (AS-MS, mixture library, Bcl-2): −0.5%
ASMS ratio (%) n = 2 (AS-MS, mixture library, Bcl-2): 0.9%
SMILES: CCOc1cncc(-c2ccc(CN3CCN(c4ccc(C(=O)N(CC)CC)nn4)CC3)cc2F)c1 [B4J078-01, 6-[4-[[4-(5-Ethoxypyridin-3-yl)-3-fluorophenyl]methyl]piperazin-1-yl]-N,N-diethylpyridazine-3-carboxamide]

— patent US20240132431A1, “METHOD FOR ALKYLATING ACIDIC FUNCTIONAL GROUP” (Chugai Seiyaku Kabushiki Kaisha, priority 2021, published 2024)
